Measurements published in US6492381B1, “Tricyclic carbamate compounds useful for inhibition of G-protein function and for treatment of proliferative diseases” (Schering Corp., priority 1993, dated 2002).

What was measured:
[1] = system: SW620 [human colon adenocarcinoma (lymph node metastasis)]; experiment: In vivo anti-tumor study, SW620 s.c. tumor; design: species or system mouse; conditions: po
Source text: In Vivo Anti-Tumor Studies
Tumor cells (5×10^5 to 8×10^6 of M27 [mouse Lewis lung carcinoma], A431 [human epidermal carcinoma] or SW620 [human colon adenocarcinoma (lymph node metastasis)]) are innoculated subcutaneously into the flank of 5-6 week old athymic nu/nu female mice. For the C-f-1 [mouse fibroblast transformed with c-fos oncogene] tumor model, 2 mm^3 tumor fragments are transplanted subcutaneously into the flank of 5-6 week old athymic nu/nu female mice. Tumor bearing animals are selected and randomized when the tumors are established. Animals are treated with vehicle (beta cyclodextran for i.p. or corn oil for p.o.) only or compounds in vehicle twice a day (BID) for 5 (1-5) or 7 (1-7) days per week for 2 (×2) or 4 (×4) weeks. The percent inhibition of tumor growth relative to vehicle controls are determined by tumor measurements.

[2] = system: Ras-CVLS processing in COS monkey kidney cells; experiment: Cell-based assay: Ras-CVLS processing in transfected COS cells (immunoblot); conditions: Primates; inhibition of Ras-CVLS processing in Ras-transfected COS cells
Source text: (§1) 2. Cell-Based Assay: Transient expression of val^12-Ha-Ras-CVLS and val^12-Ha-Ras-CVLL in COS monkey kidney cells: Effect of farnesyl protein transferase inhibitors on Ras processing and on disordered cell growth induced by transforming Ras.
(§2) COS monkey kidney cells were transfected by electroporation with the plasmid pSV-SPORT (Gibco/BRL) containing a cDNA insert encoding either Ras-CVLS or Ras-CVLL, leading to transient overexpression of a Ras substrate for either farnesyl protein transferase or geranylgeranyl protein transferase I, respectively (see above).
(§3) Following electroporation, cells were plated into 6-well tissue culture dishes containing 1.5 ml of Dulbecco's-modified Eagle's media (GIBCO, Inc.) supplemented with 10% fetal calf serum and the appropriate farnesyl protein transferase inhibitors. After 24 hours, media was removed and fresh media containing the appropriate drugs was re-added.
48 hours after electroporation cells were examined under the microscope to monitor disordered cell growth induced by transforming Ras. Cells expressing transforming Ras become more rounded and refractile and overgrow the monolayer, reminiscent of the transformed phenotype. Cells were then photographed, washed twice with 1 ml of cold phosphate-buffered saline (PBS) and removed from the dish by scraping with a rubber policeman into 1 ml of a buffer containing 25 mM Tris, pH 8.0; 1 mM ethylenediamine tetraacetic acid; 1 mM phenylmethylsulfonyl fluoride; 50 μM leupeptin; and 0.1 μM pepstatin. Cells were lysed by homogenization and cell debris was removed by centrifugation at 2000×g for 10 min.
Cellular protein was precipitated by addition of ice-cold trichloroacetic acid and redissolved in 100 μl of SDS-electrophoresis sample buffer. Samples (5-10 μl) were loaded onto 14% polyacrylamide minigels (Novex, Inc.) and electrophoresed until the tracking dye neared the bottom of the gel. Proteins resolved on the gels were electroblotted onto nitrocellulose membranes for immunodetection.
Membranes were blocked by incubation overnight at 4° C. in PBS containing 2.5% dried milk and 0.5% Tween-20 and then incubated with a Ras-specific monoclonal antibody, Y13-259 (Furth, M. E., et al., (1982), Monoclonal antibodies to the p21 products of the transforming gene of Harvey murine sarcome virus and of the cellular ras gene family, J. Virol. 43: 294-304), in PBS containing 1% fetal calf serum for one hour at room temperature. After washing, membranes were incubated for one hour at room temperature with a 1:5000 dilution of secondary antibody, rabbit anti-rat IgG conjugated to horseradish peroxidase, in PBS containing 1% fetal calf serum. The presence of processed and unprocessed Ras-CVLS or Ras-CVLL was detected using a calorimetric peroxidase reagent (4-chloro-1-naphthol) as described by the manufacturer (Bio-Rad).

[3] = system: Normal human HEPM fibroblasts; experiment: Cell Mat assay: inhibition of normal cell growth; type: cell-based; conditions: Homo sapiens, Fibroblast, mIC50, normal cell monolayer
Experimental: Normal human HEPM fibroblasts were planted in 3.5 cm dishes at a density of 5×10^4 cells/dish in 2 ml growth medium, and incubated for 3-5 d to achieve confluence. Medium was aspirated from each dish and the indicator tumor cells, T24-BAG4 human bladder carcinoma cells expressing an activated H-ras gene, were planted on top of the fibroblast monolayer at a density of 2×10^3cells/dish in 2 ml growth medium, and allowed to attach overnight. Compound-induced colony inhibition was assayed by addition of serial dilutions of compound directly to the growth medium 24 h after tumor cell planting, and incubating cells for an additional 14 d to allow colony formation. Assays were terminated by rinsing monolayers twice with phosphate-buffered saline (PBS), fixing the monolayers with a 1% glutaraldehyde solution in PBS, then visualizing tumor cells by staining with X-Gal (Price, J., et al., Lineage analysis in the vertebrate nervous system by retrovirus-mediated gene transfer, Proc. Natl. Acad. Sci.84, 156-160(1987)). […] Both IC50 values were obtained by determining the density of tumor cells and mat cells by visual inspection and enumeration of cells per colony and the number of colonies under the microscope. The therapeutic index of the compound was quantitatively expressed as the ratio of mIC50/tIC50, with values greater than one indicative of tumor target specificity.

[4] = system: disordered cell growth induced by transforming Ras-CVLS in COS monkey kidney cells; experiment: Cell-based assay: disordered cell growth induced by transforming Ras in COS cells (microscopy)
Source text: as §1, §2, §3
48 hours after electroporation cells were examined under the microscope to monitor disordered cell growth induced by transforming Ras. Cells expressing transforming Ras become more rounded and refractile and overgrow the monolayer, reminiscent of the transformed phenotype. […]

**Q.** Which “average % tumor inhibition” value ([1]; SW620, 100 MPK, 10/wk, ×4) does the source give for `CCOC(=O)N1CCC(C2(F)c3ccc(Cl)cc3CCc3cccnc32)CC1` (stereo not drawn) [Compound 530.00] here?
**A.** Its value is 57%.

**Q.** What about the “% Inhibition (tumor growth relative to vehicle controls)” value ([1]; SW-620 s.c. in athymic nu/nu mice, BID, 1-5, × 4) of the same compound?
**A.** The value was 73%.

**Q.** And the IC50 [2]?
**A.** The IC50 was 15.4 µM.

**Q.** And the IC50 [3]?
**A.** The IC50 was 100 µM.

**Q.** And the “response to oncogenic Ras-CVLS (overgrowth of monolayer, dense foci)” value ([4]; at 6.6 μg/ml)?
**A.** Its value is “inhibited”.

**Q.** What about the “response to oncogenic Ras-CVLS (overgrowth of monolayer, dense foci)” value ([4]; at 20 μg/ml) of the same compound?
**A.** Its value is “inhibited”.
